The results in this text go back to patent US4110368A, “Hydro substituted prostanoic acids and esters” (American Cyanamid Company, priority 1977, dated 1978).

Assay [1] relates to ulcerogenic properties of indomethacin. In words: protection against indomethacin-induced ulcers (ulcer score). As to conditions: two half doses by gavage, indomethacin 20 mg./kg. s.c., ulcer scale 0-4, score 2.5 or lower = active. It counts as in vivo, rat. As for the experimental part: The compounds of this invention provide protection against the ulcerogenic properties of indomethacin. This assay was carried out in the following manner.
Rats were starved for 48 hours (water was given ad libitum). Indomethacin (20 mg./kg. of body weight) was administered by the subutaneous route and one-half the dose of the test compound was administered by gavage at the same time. After 3 hours, the second half of the test compound was administered also by Gavage. Five hours after the administration of indomethacin the animals were decapitated and the stomachs removed. The stomachs were washed with distilled water, blotted on gauze, cut along the larger curvature, and the contents rinsed with distilled water. The stomachs were spread out, pinned on a cork and visualized under magnifying glass for ulcers. The criteria for scoring of ulcers was as previously reported. [Abdel-Galil et al. Brit. J. Pharmac. Chemotherapy 33:1-14 (1968)].
1 -- Petechial hemorrhage or pin point ulcer
3 -- Many ulcers, a few large
4 -- Many ulcers, mainly large
Control animals treated with indomethacin but not test compound consistently give scores of about 3.0-3.5. Control animals treated with neither indomethacin nor test compound give scores of about 0.5-0.8. Compounds producing a score of 2.5 or lower are considered to be active.

A further assay deals with gastric acid secretion. The assay is described as follows: gastric acid secretion inhibition, modified Shay rat procedure. Format: in vivo, rat (male, CFE strain). The following applies: intraduodenal dose 100 mg./kg. of body weight; 3 hours; 20% or more = active. As for the experimental part:
The novel compounds of the present invention are also effective inhibitors of gastric acid secretion and of ulcer development in experimental animals, and thus are potentially valuable as agents for the control of gastric acid secretion and of gastric erosion and as anti-ulcer agents. Gastric acid secretion inhibitory action is usually measured by the "Shay rat" procedure ^(1,2) with some modifications as follows.
The rats (male, CFE strain) were starved for 48 hours (water was given ad libitum) to permit evacuation of stomach contents. On the morning of the experiment, under ether anesthesia, the abdominal region was shaved and a midline incision (1-1 1/2 inch) was made with a scapel. […]
The abdominal cavity was exposed by cutting with scissors and the esophagus close to the stomach was clamped off with a hemostat, the stomach was removed by cutting above the hemostat (the esophagus was cut) and between the two sutures. […] The supernatant was collected, volume measured and recorded, 2 drops of a phenolphthalein indicator (1% in 95% ethanol) were added and the solution was titrated with 0.02N NaOH (or with 0.04N NaOH when large volumes of stomach contents were encountered) to pH 8.4 (because of usual coloring of the stomach contents, phenolphthalein was only used to permit visual indication that the end point was near) and the amount of acid present was calculated. […]

Where [2] appears, read: total oral dose 25 mg./kg. of body weight, control 3.2.

For `CCCCCC(O)/C=C/[C@H]1CCC(=O)[C@@H]1CCCCCC(CC)C(=O)O` (relative stereo), the “Score, Treated” value in assay [1] (total oral dose 50 mg./kg. of body weight, control 3.0) came to 2.2. Consider `CCCCC[C@@H](O)/C=C/[C@H]1CCC(=O)[C@@H]1CCCCSCC(=O)O` (relative stereo) [9-oxo-3-thia-15-epi-hydroxy-13-trans-prostenoic acid], for which the “Score, Treated” value in assay [1] (setting [2]) is given as 2.3.

Take `CCCCCC(O)/C=C/[C@H]1CCC(=O)[C@@H]1CCCCC(C)(C)CC(=O)O` (relative stereo) [9-oxo-15-hydroxy-3,3-dimethyl-13-trans-prostenoic acid]: the “Percent Inhibition (gastric acid secretion)” value in the assay on gastric acid secretion is listed as 51%. On to `CCCCCC(O)/C=C\[C@H]1CCC(=O)[C@@H]1CCCCCCC(=O)O` (relative stereo) [9-oxo-15-hydroxy-13-cis-prostenoic acid, 15-hydroxy-9-oxo-13-cis-prostenoic acid], for which, in assay [1] (total oral dose 100 mg./kg. of body weight, control 3.0), the “Score, Treated” value stood at 1.3. With `CCCCC(CC)C(O)/C=C/[C@H]1CCC(=O)[C@@H]1CCCCCCC(=O)O` (relative stereo) [9-oxo-15-hydroxy-16-ethyl-13-trans-prostenoic acid], the “Score, Treated” value in assay [1] (setting [2]) stood at 1.7. For `CCCCCC(O)/C=C/C1CCC(=O)C1CCCCSCC(=O)O` (stereo not drawn) [9-oxo-3-thia-15-hydroxy-13-trans-prostenoic acid], the “Score, Treated” value in assay [1] (setting [2]) stood at 1.8. For `CCCCCC(O)/C=C/C1CCC(=O)C1(C)CCCCCCC(=O)O` (stereo not drawn) [9-oxo-8β-methyl-15-hydroxy-13-trans-prostenoic acid], in assay [1] (total oral dose 12.5 mg./kg. of body weight, control 3.0), the “Score, Treated” value is on record as 2.0.
